{"source": "ChEMBL document CHEMBL1697692", "about": "“Developing structure-activity relationships for the prediction of hepatotoxicity” (Chem Res Toxicol, 2010)"}
{"tested_on": "Hepatotoxicity", "test": "Literature-mined public compounds from Greene et al multi-species hepatotoxicity modelling dataset"}
{"compound": "O=[As][As+](=O)[O-]", "note": "(stereo not drawn) [ARSENIC TRIOXIDE]", "Hepatotoxicity": "HH: Evidence of human hepatotoxicity"}
{"compound": "CN[C@@H]1[C@H](O[C@H]2[C@H](O[C@H]3[C@H](O)[C@@H](O)[C@H](N=C(N)N)[C@@H](O)[C@@H]3N=C(N)N)O[C@@H](C)[C@]2(O)C=O)O[C@@H](CO)[C@H](O)[C@H]1O.CN[C@@H]1[C@H](O[C@H]2[C@H](O[C@H]3[C@H](O)[C@@H](O)[C@H](N=C(N)N)[C@@H](O)[C@@H]3N=C(N)N)O[C@@H](C)[C@]2(O)C=O)O[C@@H](CO)[C@H](O)[C@H]1O.O=S(=O)(O)O.O=S(=O)(O)O.O=S(=O)(O)O", "note": "[STREPTOMYCIN SULFATE]", "Hepatotoxicity": "NE: No evidence of hepatotoxicity in any species"}
{"compound": "ClC=C(Cl)Cl", "note": "[TRICHLOROETHYLENE]", "Hepatotoxicity": "AH: Evidence for animal hepatotoxicity but not tested in humans"}
{"compound": "CS(=O)(=O)OCCOS(C)(=O)=O", "note": "[ETHANE DIMETHANE SULFONATE]", "Hepatotoxicity": "AH: Evidence for animal hepatotoxicity but not tested in humans"}
{"compound": "AURANOFIN", "Hepatotoxicity": "HH: Evidence of human hepatotoxicity"}
{"compound": "CCN(CC)C(=O)N1CCN(C)CC1", "note": "[DIETHYLCARBAMAZINE]", "Hepatotoxicity": "HH: Evidence of human hepatotoxicity"}
{"compound": "Oc1ncnc2[nH]ncc12", "note": "[ALLOPURINOL]", "Hepatotoxicity": "HH: Evidence of human hepatotoxicity"}
{"compound": "CC(=O)N(O)CCCCCNC(=O)CCC(=O)N(O)CCCCCNC(=O)CCC(=O)N(O)CCCCCN.CS(=O)(=O)O", "note": "[DEFEROXAMINE MESYLATE]", "Hepatotoxicity": "HH: Evidence of human hepatotoxicity"}
{"compound": "Cc1ccccc1C(OCCN(C)C)c1ccccc1.O=C(O)CC(O)(CC(=O)O)C(=O)O", "note": "(stereo not drawn) [ORPHENADRINE CITRATE]", "Hepatotoxicity": "NE: No evidence of hepatotoxicity in any species"}
{"compound": "Nc1nc(=O)[nH]cc1F", "note": "[FLUCYTOSINE]", "Hepatotoxicity": "HH: Evidence of human hepatotoxicity"}
{"compound": "CCSCC[C@H](N)C(=O)O", "note": "(stereo in doubt; form 2) [ETHIONINE]", "Hepatotoxicity": "AH: Evidence for animal hepatotoxicity but not tested in humans"}
{"compound": "CC(=O)O[C@H]1C(=O)[C@@]2(C)[C@H]([C@H](OC(=O)c3ccccc3)[C@]3(O)C[C@H](OC(=O)[C@H](O)[C@@H](NC(=O)c4ccccc4)c4ccccc4)C(C)=C1C3(C)C)[C@]1(OC(C)=O)CO[C@@H]1C[C@@H]2O", "note": "[PACLITAXEL]", "Hepatotoxicity": "HH: Evidence of human hepatotoxicity"}
{"compound": "NC(=O)NO", "note": "[HYDROXYUREA]", "Hepatotoxicity": "HH: Evidence of human hepatotoxicity"}
{"compound": "CN1C(C(=O)Nc2ccccn2)=C(O)c2ccccc2S1(=O)=O", "note": "[PIROXICAM]", "Hepatotoxicity": "HH: Evidence of human hepatotoxicity"}
{"compound": "CCOC(=O)c1ncn2c1CN(C)C(=O)c1cc(F)ccc1-2", "note": "[FLUMAZENIL]", "Hepatotoxicity": "NE: No evidence of hepatotoxicity in any species"}
{"compound": "MERCURIC CHLORIDE", "Hepatotoxicity": "AH: Evidence for animal hepatotoxicity but not tested in humans"}
{"compound": "CCC[C@@H]1C[C@@H](C(=O)N[C@@H]([C@H]2O[C@H](SC)[C@H](O)[C@@H](O)[C@H]2O)[C@H](C)Cl)N(C)C1.Cl", "note": "[CLINDAMYCIN HYDROCHLORIDE]", "Hepatotoxicity": "HH: Evidence of human hepatotoxicity"}
{"compound": "C=CC(O)CC#N", "note": "(stereo not drawn)", "Hepatotoxicity": "NE: No evidence of hepatotoxicity in any species"}
{"compound": "CC(=O)c1ccc(S(=O)(=O)NC(=O)NC2CCCCC2)cc1", "note": "[ACETOHEXAMIDE]", "Hepatotoxicity": "HH: Evidence of human hepatotoxicity"}
{"compound": "CCOc1nc2cccc(C(=O)O)c2n1Cc1ccc(-c2ccccc2-c2nnn[nH]2)cc1", "Hepatotoxicity": "WE: Weak evidence (<10 case reports) of human hepatotoxicity"}
{"compound": "Cc1cc(CC(=O)O)n(C)c1C(=O)c1ccc(Cl)cc1", "note": "[ZOMEPIRAC]", "Hepatotoxicity": "NE: No evidence of hepatotoxicity in any species"}
{"compound": "Nc1nc(Cl)nc2c1ncn2[C@H]1C[C@H](O)[C@@H](CO)O1", "note": "[CLADRIBINE]", "Hepatotoxicity": "NE: No evidence of hepatotoxicity in any species"}
{"compound": "COc1ccc(C[C@H](N)C(=O)N[C@H]2[C@@H](O)[C@H](n3cnc4c(N(C)C)ncnc43)O[C@@H]2CO)cc1", "note": "[PUROMYCIN]", "Hepatotoxicity": "AH: Evidence for animal hepatotoxicity but not tested in humans"}
{"compound": "N=C(N)NCCC[C@H](N)C(=O)O", "note": "[ARGININE]", "Hepatotoxicity": "NE: No evidence of hepatotoxicity in any species"}
{"compound": "CC[C@H]1OC(=O)[C@H](C)[C@@H](O[C@H]2C[C@@](C)(OC)[C@@H](O)[C@H](C)O2)[C@H](C)[C@@H](O[C@@H]2O[C@H](C)C[C@H](N(C)C)[C@H]2O)[C@](C)(OC)C[C@@H](C)C(=O)[C@H](C)[C@@H](O)[C@]1(C)O", "note": "[CLARITHROMYCIN]", "Hepatotoxicity": "HH: Evidence of human hepatotoxicity"}
{"compound": "O=C([O-])O.[Na+]", "note": "[SODIUM BICARBONATE]", "Hepatotoxicity": "AH: Evidence for animal hepatotoxicity but not tested in humans"}
{"compound": "CC(C(=O)O)c1ccc2oc(-c3ccc(Cl)cc3)nc2c1", "note": "(stereo not drawn) [BENOXAPROFEN]", "Hepatotoxicity": "HH: Evidence of human hepatotoxicity"}
{"compound": "O=C(O)c1cc(=O)c2c(OCC(O)COc3cccc4oc(C(=O)O)cc(=O)c34)cccc2o1", "note": "[CROMOLYN]", "Hepatotoxicity": "NE: No evidence of hepatotoxicity in any species"}
{"compound": "Nc1ccc(Cc2ccc(N)cc2)cc1", "Hepatotoxicity": "AH: Evidence for animal hepatotoxicity but not tested in humans"}
{"compound": "CN(C)/N=N/c1[nH]cnc1C(N)=O", "note": "[DACARBAZINE]", "Hepatotoxicity": "HH: Evidence of human hepatotoxicity"}
{"compound": "COC(=O)Nc1nc2ccccc2[nH]1", "note": "[CARBENDAZIM]", "Hepatotoxicity": "AH: Evidence for animal hepatotoxicity but not tested in humans"}
{"compound": "COc1cc2c(c3oc(=O)c4c(c13)CCC4=O)[C@@H]1C=CO[C@@H]1O2", "note": "[AFLATOXIN]", "Hepatotoxicity": "HH: Evidence of human hepatotoxicity"}
{"compound": "C#C[C@]1(OC(C)=O)CC[C@H]2[C@@H]3CCC4=C[C@@H](OC(C)=O)CC[C@@H]4[C@H]3CC[C@@]21C", "note": "[ETHYNODIOL DIACETATE]", "Hepatotoxicity": "HH: Evidence of human hepatotoxicity"}
{"compound": "C[C@](N)(Cc1ccc(O)c(O)c1)C(=O)O", "note": "[METHYLDOPA]", "Hepatotoxicity": "HH: Evidence of human hepatotoxicity"}
{"compound": "C[C@H]1C[C@H]2[C@@H]3CCC4=CC(=O)C=C[C@]4(C)[C@@]3(F)[C@@H](O)C[C@]2(C)[C@@]1(O)C(=O)CO", "note": "[BETAMETHASONE]", "Hepatotoxicity": "NE: No evidence of hepatotoxicity in any species"}
{"compound": "CC[C@@]1(O)C[C@H](O[C@H]2C[C@H](N(C)C)[C@H](O[C@H]3C[C@H](O)[C@H](O[C@H]4CCC(=O)[C@H](C)O4)[C@H](C)O3)[C@H](C)O2)c2c(cc3c(c2O)C(=O)c2c(O)cccc2C3=O)[C@H]1C(=O)OC.Cl", "note": "[ACLARUBICIN HYDROCHLORIDE]", "Hepatotoxicity": "WE: Weak evidence (<10 case reports) of human hepatotoxicity"}
{"compound": "Brc1ccccc1", "note": "[BROMOBENZENE]", "Hepatotoxicity": "HH: Evidence of human hepatotoxicity"}
{"compound": "Cl[C@H]1[C@H](Cl)[C@@H](Cl)[C@@H](Cl)[C@H](Cl)[C@H]1Cl", "note": "(stereo in doubt; form 2) [LINDANE]", "Hepatotoxicity": "HH: Evidence of human hepatotoxicity"}
{"compound": "S=C=Nc1ccc2ccccc2c1", "Hepatotoxicity": "WE: Weak evidence (<10 case reports) of human hepatotoxicity"}
{"compound": "Cl.Cl.O=C(CCN1CCN2CCCC2C1)N1c2ccccc2Sc2ccc(Cl)cc21", "note": "(stereo not drawn) [AZACLORZINE HYDROCHLORIDE]", "Hepatotoxicity": "HH: Evidence of human hepatotoxicity"}
{"compound": "CN/C(=N/CCSCc1nc[nH]c1C)NC#N", "note": "[CIMETIDINE]", "Hepatotoxicity": "WE: Weak evidence (<10 case reports) of human hepatotoxicity"}
{"compound": "CC(=O)N[C@@H](CS)C(=O)O", "note": "[ACETYLCYSTEINE]", "Hepatotoxicity": "NE: No evidence of hepatotoxicity in any species"}
{"compound": "Cl.NC12CC3CC(CC(C3)C1)C2", "note": "[AMANTADINE HYDROCHLORIDE]", "Hepatotoxicity": "NE: No evidence of hepatotoxicity in any species"}
